One assay deals with hypoxia-inducible endogenous VEGF expression. Description: Hypoxia-inducible endogenous VEGF expression ELISA in HeLa cells, dose-response EC50 (Table 3). The assay is classed as cell-based, human. The note with it: HeLa cells, hypoxic conditions (1% O2), 24-48 hours, VEGF in conditioned media; read-out: ELISA EC50. In a few lines: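 HeLa cells kept 24-48 h under hypoxia (1% O2, 5% CO2, nitrogen balance) with or without compound, e.g. seven concentrations; secreted VEGF in conditioned medium quantified by ELISA against a standard curve. Parallel Cell Titer Glo viability under identical conditions excludes cytotoxicity.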
Broadly, the EC50 is the concentration giving half of the maximal effect. Regarding `COC(=O)c1ccc(C2c3[nH]c4ccc(Cl)cc4c3CCN2C(=O)Oc2ccc(F)cc2)cc1` (stereo not drawn) [Compound 579], the EC50 was below 0.008 µM.
The same measure, in the same setting: as for `Cc1ccc(C2c3[nH]c4ccc(Br)cc4c3CCN2C(=O)Oc2ccc(F)cc2)cc1` (stereo not drawn) [Compound 403], the figure is below 0.008 µM.

Still in this assay, the particulars now being: Homo sapiens, HeLa, read-out: ELISA EC50 μM.
Regarding `CN1CCCC(COc2ccc(C3c4[nH]c5ccc(Cl)cc5c4CCN3C(=O)Oc3ccc(F)cc3)cc2)C1` (stereo not drawn) [Compound 932], the EC50 is below 0.008 µM.
Still for that read-out and setting: as for `CN1CCN(CC(O)COc2ccc(C3c4[nH]c5ccc(Cl)cc5c4CCN3C(=O)Oc3ccc(F)cc3)cc2)CC1` (stereo not drawn) [Compound 963], the figure is 0.008 to 0.04 µM; as for `O=C(Oc1ccc(Cl)cc1)N1CCc2c([nH]c3ccc(Cl)cc23)[C@@H]1c1ccc(OC[C@H](O)CN2CCOCC2)cc1` [Compound 1070], below 0.008 µM.
On the same count and under the same terms, as for `COc1ccc(C2c3[nH]c4ccc(Cl)cc4c3CCN2C(=O)Oc2ccc(Cl)cc2)cc1OCCN1CCOCC1` (stereo not drawn) [Compound 1095], the figure is 0.2 to 1 µM; as for `CCN(CC)CC(O)COc1ccc(C2c3[nH]c4ccc(Cl)cc4c3CCN2C(=O)Oc2ccc(Cl)cc2)cc1` (stereo not drawn) [Compound 938], below 0.008 µM; as for `CN1CCCC1CCOc1ccc(C2c3[nH]c4ccc(Cl)cc4c3CCN2C(=O)Oc2ccc(F)cc2)cc1` (stereo not drawn) [Compound 1008], 0.04 to 0.2 µM.
Still for that read-out and setting: under `COc1cc(C2c3[nH]c4ccc(Cl)cc4c3CCN2C(=O)Oc2ccc(Cl)cc2)ccc1OCCN1CCOCC1` (stereo not drawn) [Compound 1092] stands 0.008 to 0.04 µM; under `COc1ccc(OC(=O)N2CCc3c([nH]c4ccc(Cl)cc34)C2c2ccc(OCCCN(C)C)cc2)cc1` (stereo not drawn) [Compound 501], 0.04 to 0.2 µM.
With `CN(C)CCCOc1ccc(C2c3[nH]c4ccc(Cl)cc4c3CCN2C(=O)Oc2ccccc2)cc1` (stereo not drawn) [Compound 493], the EC50 lay within 0.04 to 0.2 µM.
Same read-out and setting: as for `O=C(Oc1ccc(F)cc1)N1CCc2c([nH]c3ccc(Cl)cc23)C1c1ccc(OCCCCCCN2CCCC2)cc1` (stereo not drawn) [Compound 773], the figure is below 0.008 µM.
On the same count and under the same terms, as for `O=C(Oc1ccc(Cl)cc1)N1CCc2c([nH]c3ccc(Cl)cc23)C1c1ccc(OCCCN2CCSCC2)cc1` (stereo not drawn) [Compound 933], the figure is below 0.008 µM.
On the same count and under the same terms, under `COc1cc(C2c3[nH]c4ccc(Cl)cc4c3CCN2C(=O)Oc2ccc(C)cc2)ccc1OCCCN1CCOCC1` (stereo not drawn) [Compound 1132] stands 0.008 to 0.04 µM; under `COc1ccc(OC(=O)N2CCc3c([nH]c4ccc(Cl)cc34)C2c2ccc(OCCCN3CCOCC3)cc2)cc1` (stereo not drawn) [Compound 1030], 0.008 to 0.04 µM.

Still in this assay, the particulars now being: Homo sapiens; HeLa cells, hypoxic conditions (1% O2), 24-48 hours, VEGF in conditioned media; read-out: ELISA EC50.
In the case of `CC(C)(C)OC(=O)N1CCC(COc2ccc(C3c4[nH]c5ccc(Cl)cc5c4CCN3C(=O)Oc3ccc(Cl)cc3)cc2)CC1` (stereo not drawn) [Compound 845], the EC50 lay in the range of 0.04 to 0.2 µM.
The same measure, in the same setting: as for `CC(=O)NCC(O)CCOc1ccc([C@H]2c3[nH]c4ccc(Cl)cc4c3CCN2C(=O)Oc2ccc(Cl)cc2)cc1` (stereo partly drawn) [Compound 1276], the figure is below 0.008 µM.
On the same count and under the same terms, under `O=C(Oc1ccc(F)cc1)N1CCc2c([nH]c3ccc(Cl)cc23)C1c1ccc(OCC(O)CO)cc1` (stereo not drawn) [Compound 627] stands below 0.008 µM; under `O=C(Oc1ccc(Cl)cc1)N1CCc2c([nH]c3ccc(Cl)cc23)C1c1ccc(Cl)cc1` (stereo not drawn) [Compound 351], 0.008 to 0.04 µM; under `CS(=O)(=O)Nc1ccc(C2c3[nH]c4ccc(Cl)cc4c3CCN2C(=O)Oc2ccc(Cl)cc2)cc1` (stereo not drawn) [Compound 974], 0.04 to 0.2 µM.
Still for that read-out and setting: as for `O=C(Oc1ccc(F)cc1)N1CCc2c([nH]c3ccc(Cl)cc23)C1c1ccc(OCCn2cncn2)cc1` (stereo not drawn) [Compound 834], the figure is 0.008 to 0.04 µM; as for `COc1ccc(OC(=O)N2CCc3c([nH]c4ccc(Cl)cc34)[C@@H]2c2ccc(OCC[C@H](O)CO)cc2)cc1` [Compound 1300], below 0.008 µM; as for `Cc1ccc(OC(=O)N2CCc3c([nH]c4ccc(Cl)cc34)[C@@H]2c2ccc(OCC(C)(CO)CO)cc2)cc1` [Compound 1297], 0.008 to 0.04 µM.
Regarding `O=C(Oc1ccc(Cl)cc1)N1CCc2c([nH]c3ccc(Cl)cc23)C1c1ccc(S(=O)(=O)N2CCOCC2)cc1` (stereo not drawn) [Compound 346], the EC50 was in the range of 0.008 to 0.04 µM.
On to `COc1ccc(OC(=O)N2CCc3c([nH]c4ccc(Cl)cc34)C2c2ccc(OCCCO)cc2)cc1` (stereo not drawn) [Compound 1058], for which the EC50 was below 0.008 µM.
Regarding `O=C(Oc1ccc(Cl)cc1)N1CCc2c([nH]c3ccc(Cl)cc23)C1c1ccc(OCCCCCCn2cncn2)cc1` (stereo not drawn) [Compound 791], the EC50 is below 0.008 µM.
The same measure, in the same setting: as for `COC(=O)c1ccc(C2c3[nH]c4ccc(Cl)cc4c3CCN2C(=O)Oc2ccc(Cl)cc2)cc1` (stereo not drawn) [Compound 580], the figure is below 0.008 µM.
Still for that read-out and setting: under `COc1ccc(OC(=O)N2CCc3c([nH]c4ccc(Cl)cc34)C2c2ccc(S(C)(=O)=O)cc2)cc1` (stereo not drawn) [Compound 359] stands 0.04 to 0.2 µM; under `COc1ccc(C2c3[nH]c4ccc(Cl)cc4c3CCN2C(=O)Oc2ccccc2)cc1` (stereo not drawn) [Compound 60], 0.008 to 0.04 µM; under `COCCOc1ccc(C2c3[nH]c4ccc(Cl)cc4c3CCN2C(=O)Oc2ccc(Cl)cc2)cc1` (stereo not drawn) [Compound 418], below 0.008 µM.
Same read-out and setting: under `Cc1ccc(OC(=O)N2CCc3c([nH]c4ccc(Cl)cc34)[C@@H]2c2ccc(OCC[C@H](O)CO)cc2)cc1` [Compound 1292] stands below 0.008 µM.
On to `O=C(Oc1ccc(F)cc1)N1CCc2c([nH]c3ccc(Cl)cc23)C1c1ccc(OCCn2ccnc2)cc1` (stereo not drawn) [Compound 835], for which the EC50 lay within 0.04 to 0.2 µM.
On the same count and under the same terms, as for `CC1(C)OC[C@@H](COc2ccc([C@H]3c4[nH]c5ccc(Cl)cc5c4CCN3C(=O)Oc3ccc(Cl)cc3)cc2)O1` [Compound 1260], the figure is below 0.008 µM; as for `COCCOCCOc1ccc(C2c3[nH]c4ccc(Cl)cc4c3CCN2C(=O)Oc2ccccc2Cl)cc1` (stereo not drawn) [Compound 674], 0.008 to 0.04 µM.

The assay is the same for the next values; noted with them: Homo sapiens; HeLa cells, hypoxic conditions (1% O2), VEGF ELISA of conditioned media; read-out: ELISA EC50.
In the case of `CS(=O)(=O)CCCOc1ccc(C2c3[nH]c4ccc(Cl)cc4c3CCN2C(=O)Oc2ccc(Cl)cc2)cc1` (stereo not drawn) [Compound 1551], the EC50 was below 0.008 µM.
Still for that read-out and setting: under `O=C(Oc1ccc(Cl)cc1)N1CCc2c([nH]c3ccc(Cl)cc23)[C@@H]1c1ccc(OCCC(O)CNS(=O)(=O)C2CC2)cc1` (stereo partly drawn) [Compound 1639] stands below 0.008 µM.
On the same count and under the same terms, as for `CC(CO)(CO)COc1ccc(C2c3[nH]c4ccc(Br)cc4c3CCN2C(=O)Oc2ccc(F)cc2)cc1` (stereo not drawn) [Compound 1352], the figure is below 0.008 µM; as for `CC(CO)(CO)COc1ccc(C2c3[nH]c4ccc(Br)cc4c3CCN2C(=O)Oc2ccc(Cl)cc2)cc1` (stereo not drawn) [Compound 1353], below 0.008 µM.
On to `CCS(=O)(=O)NCC(O)COc1ccc(C2c3[nH]c4ccc(Cl)cc4c3CCN2C(=O)Oc2ccc(Cl)cc2)cc1` (stereo not drawn) [Compound 1565], for which the EC50 is 0.008 to 0.04 µM.
On the same count and under the same terms, under `CCC(CO)(CO)COc1ccc(C2c3[nH]c4ccc(Br)cc4c3CCN2C(=O)Oc2ccc(Cl)cc2)cc1` (stereo not drawn) [Compound 1358] stands below 0.008 µM; under `CC(=O)Oc1ccc([C@H]2c3[nH]c4ccc(Cl)cc4c3CCN2C(=O)Oc2ccc(Cl)cc2)cc1` [Compound 1538], below 0.008 µM; under `CCC(CO)(CO)COc1ccc([C@H]2c3[nH]c4ccc(Cl)cc4c3CCN2C(=O)Oc2ccc(Cl)cc2)cc1` [Compound 1329], below 0.008 µM.
For the molecule `[H]/N=c1\sccn1CCOc1ccc(C2c3[nH]c4ccc(Cl)cc4c3CCN2C(=O)Oc2ccc(Cl)cc2)cc1` (stereo not drawn) [Compound 1393], the EC50 was below 0.008 µM.
The same measure, in the same setting: under `Cc1cc(NCCOc2ccc(C3c4[nH]c5ccc(Cl)cc5c4CCN3C(=O)Oc3ccc(Cl)cc3)cc2)on1` (stereo not drawn) [Compound 1419] stands 0.008 to 0.04 µM; under `O=C(Oc1ccc(Cl)cc1)N1CCc2c([nH]c3ccc(Cl)cc23)[C@@H]1c1ccc(OC2CCOCC2)cc1` [Compound 1605], below 0.008 µM.

Source of the values: US20120157401A1, “METHODS FOR TREATING NEUROFIBROMATOSIS” (PTC Therapeutics, Inc., priority 2009, published 2012).
